Key:
[1] = test system: soybean tissues; assay: miRNA expression profiling of miR1512 and miR3522 in soybean tissues; settings: for relative expression level, 3 mm seed: soybean 3 mm seed; for relative expression level, Cotyledons: soybean cotyledons; for relative expression level, Embryo axis: soybean embryo axis; for relative expression level, Flower: soybean flower; for relative expression level, Pods from 5 mm seeds: soybean pods from 5 mm seeds; for relative expression level, Root tip: soybean root tip; for relative expression level, Seed coat: soybean seed coat; for relative expression level, Stem: soybean stem
Protocol: Small RNA Library Construction and Sequencing: Small RNA library construction was carried out using Illumina's TruSeq Small RNA sample preparation kit according to the manufacturer's recommendations. Briefly, RNA 3′ and RNA 5′ adapters were sequentially ligated onto 1 μg of high-quality purified Small RNA sample using truncated T4 RNA Ligase 2 and T4 RNA Ligase respectively. The small RNA fragments were then copied into first strand cDNA using SuperScript II reverse transcriptase. The cDNA was converted into double stranded cDNA (ds cDNA) with PCR using two primers that respectively anneal to the ends of 3′ and 5′ adapters. This process selectively enriches those fragments that have adapter molecules on both ends. The amplified cDNA construct is then purified on a 6% PAGE gel, normalized to 2 nM concentration, denatured with sodium hydroxide, and diluted in hybridization buffer for loading onto a Hiseq flow cell. Cluster generation, primer hybridization and sequencing reactions were carried out according to Illumina's recommended protocol.
Given the variation in expression among different soybean tissues, miR1512 and miR3522 recognition sites were selected to exemplify tissue-specific transgene expression modulation in a dicot plant.
Table 1. miRNA microarray expression profiling of miR1512 and miR3522 in soybean tissues. Numbers represent relative expression levels.

[2] = test system: soybean tissues; assay: as above; settings: for relative expression level, 5 mm seed: soybean 5 mm seed; for relative expression level, Hypocotyl: soybean hypocotyl; for relative expression level, Leaf: soybean leaf; for relative expression level, Pod: soybean pod; for relative expression level, Root: soybean root

Substance	relative expression level, 3 mm seed [1]	relative expression level, Cotyledons [1]	relative expression level, Embryo axis [1]	relative expression level, Flower [1]	relative expression level, Pods from 5 mm seeds [1]	relative expression level, Root tip [1]	relative expression level, Seed coat [1]	relative expression level, Stem [1]	miRNA expression (in words) ([2]; all tissues examined except the root tissue)	relative expression level, 5 mm seed [2]	relative expression level, Hypocotyl [2]	relative expression level, Leaf [2]	relative expression level, Pod [2]	relative expression level, Root [2]	miRNA expression (in words) ([2]; leaves and other vegetative tissue)	miRNA expression (in words) ([2]; root)	miRNA expression (in words) ([2]; seed and seed coat)
miR3522: endogenous soybean micro-RNA, exemplary miR3522 RNA UGAGACCAAAUGAGCAGCUGA (expressed or natural sequence)	8958	26265	3200	18509	1351	649	2551	3180	high or medium levels	30139	1310	15350	405	399	–	–	–
miR1512: endogenous soybean micro-RNA, exemplary miR1512 RNA UAACUGAACAUUCUUAGAGCAU (expressed or natural sequence)	10427	70	20	79	23938	3118	13532	15	–	183	0	0	1854	0	very low expression	medium expression	high levels

Source: patent US12421522B2, “Modulation of transgene expression in plants” (CORTEVA AGRISCIENCE LLC, priority 2016, dated 2025)
